Assay results as given in patent US20060199856A1, “Novel compounds as anti-inflammatory, immunomodulatory and anti-proliferatory agents” (4 SC AG, priority 2001, published 2006).
Like-named read-outs stand apart in the source and are kept apart here.

Experiments:
Type in all cases: biochemical
recombinant human DHODH = molecular target: T1, recombinant human DHODH (Homo sapiens, UniProt Q02127); test: Inhibition assay of DHODH activity (human enzyme)
T1 construct: provided by Prof; M. Löffler, Marburg, Germany (gift, not purchased)
T1 sequence (Q02127 whole entry): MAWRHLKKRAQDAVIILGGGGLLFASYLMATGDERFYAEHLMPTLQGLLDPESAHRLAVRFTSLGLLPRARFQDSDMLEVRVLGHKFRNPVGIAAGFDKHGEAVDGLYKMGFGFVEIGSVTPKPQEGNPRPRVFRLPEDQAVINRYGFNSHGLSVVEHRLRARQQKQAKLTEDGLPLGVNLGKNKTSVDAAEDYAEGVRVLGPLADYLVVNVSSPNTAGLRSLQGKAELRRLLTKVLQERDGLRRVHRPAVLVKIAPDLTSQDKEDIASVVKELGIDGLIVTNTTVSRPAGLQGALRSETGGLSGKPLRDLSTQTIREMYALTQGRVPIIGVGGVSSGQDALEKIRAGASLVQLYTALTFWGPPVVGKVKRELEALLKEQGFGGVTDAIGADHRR
Procedure: (§1) The standard assay mixture contained 50 μM decyclo ubichinone, 100 μM dihydroorotate, 60 μM 2,6-dichloroindophenol, as well as 20 mU DHODH. The volume activity of the recombinant enzyme used was 30 U/ml. Measurements were conducted in 50 mM TrisHCl (150 mM KCl, 0,1% Triton X-100, pH. 8,0) at 30° C. in a final volume of 1 ml. The components were mixed, and the reaction was started by adding dihydroorotate. The course of reaction was followed by spectrophotometrically measuring the decrease in absorption at 600 nm for 2 min.
(§2) Inhibitory studies were conducted in a standard assay with additional variable amounts of inhibitor.
(§3) These investigations were carried out with recombinant human as well as with recombinant murine DHODH provided by Prof. M. Löffler, Marburg, Germany [M. Löffler, Chem. Biol. Interact.

DHODH = DHODH (Rattus norvegicus, UniProt Q63707); test: Inhibition assay of DHODH activity (rat enzyme, head printed 'rate')
DHODH, sequence (Q63707 whole entry): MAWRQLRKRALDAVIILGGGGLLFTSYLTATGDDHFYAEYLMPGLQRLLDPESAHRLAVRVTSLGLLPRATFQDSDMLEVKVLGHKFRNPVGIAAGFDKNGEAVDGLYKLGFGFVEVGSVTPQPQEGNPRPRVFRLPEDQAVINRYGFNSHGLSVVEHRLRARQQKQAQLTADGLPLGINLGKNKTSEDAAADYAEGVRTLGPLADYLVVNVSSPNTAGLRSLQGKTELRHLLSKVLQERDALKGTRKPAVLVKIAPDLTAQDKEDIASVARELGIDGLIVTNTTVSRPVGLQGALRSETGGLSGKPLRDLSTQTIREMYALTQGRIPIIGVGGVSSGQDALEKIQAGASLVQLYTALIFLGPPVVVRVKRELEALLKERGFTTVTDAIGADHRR
Procedure: as §1, §2

recombinant murine DHODH = molecular target: T2, recombinant murine DHODH (Mus musculus, UniProt O35435); test: Inhibition assay of DHODH activity (murine enzyme); settings: class symbols (in nM)
T2 construct: provided by Prof; M. Löffler, Marburg, Germany (gift, not purchased)
T2 sequence (O35435 whole entry): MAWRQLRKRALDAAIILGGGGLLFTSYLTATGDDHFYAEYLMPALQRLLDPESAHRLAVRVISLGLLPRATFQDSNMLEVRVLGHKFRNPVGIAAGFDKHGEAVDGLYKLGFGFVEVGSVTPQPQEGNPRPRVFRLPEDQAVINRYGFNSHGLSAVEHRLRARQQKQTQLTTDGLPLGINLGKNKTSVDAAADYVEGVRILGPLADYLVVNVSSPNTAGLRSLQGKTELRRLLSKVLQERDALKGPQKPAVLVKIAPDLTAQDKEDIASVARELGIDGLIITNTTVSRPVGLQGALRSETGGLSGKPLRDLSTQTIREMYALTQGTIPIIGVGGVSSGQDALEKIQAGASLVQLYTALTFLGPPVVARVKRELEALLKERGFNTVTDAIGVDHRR
Procedure: as §1, §2, §3

[1] = recombinant human DHODH, class symbols (in nM), read-out: human IC50-Value
[2] = class symbols (in nM), read-out: rate IC50-Value

COc1cccc(-c2ccc(NC(=O)C3=C(C(=O)O)CCC3)c(OC)c2)c1 [Compound 39]
IC50 (recombinant human DHODH; [1]): < 800 nM

O=C(O)C1=C(C(=O)Nc2ccc(-c3ccccc3Cl)cc2)CSC1 [Compound 41]
IC50 (recombinant human DHODH; [1]): < 800 nM
IC50 (DHODH; [2]): > 1500 nM

Cc1cccc(Sc2ccc(NC(=O)C3=C(C(=O)O)CCC3)cc2)c1 [Compound 42]
IC50 (recombinant human DHODH; [1]): < 800 nM
IC50 (DHODH; [2]): < 800 nM

O=C(O)C1=C(C(=O)Nc2ccc(-c3cccc(OC(F)(F)F)c3)cc2)CCC1 [Compound 43]
IC50 (recombinant human DHODH; [1]): < 800 nM

O=C(O)C1=C(C(=O)Nc2ccc(-c3cc4ccccc4s3)cc2)CCC1 [Compound 44]
IC50 (recombinant human DHODH; [1]): < 800 nM

O=C(O)C1=C(C(=O)Nc2ccc(-c3cc4ccccc4s3)cc2F)CCC1 [Compound 45]
IC50 (recombinant human DHODH; [1]): < 800 nM

CCOc1cccc(-c2ccc(NC(=O)C3=C(C(=O)O)CCC3)c(F)c2)c1 [Compound 46]
IC50 (recombinant human DHODH; [1]): < 800 nM
IC50 (DHODH; [2]): > 1500 nM

COc1cc(-c2ccc(NC(=O)C3=C(C(=O)O)CCC3)c(OC)c2)ccc1NC(=O)C1=C(C(=O)O)CCC1 [Compound 48]
IC50 (recombinant human DHODH; [1]): > 1500 nM

O=C(O)C1=C(C(=O)Nc2ccc(-c3ccccc3)cc2)CS(=O)(=O)C1 [Compound 49]
IC50 (recombinant human DHODH; [1]): > 1500 nM

O=C(O)C1=C(C(=O)Nc2ccc(Oc3ccccc3)cc2)CCC1 [Compound 50]
IC50 (recombinant human DHODH; [1]): < 800 nM
IC50 (DHODH; [2]): < 800 nM

O=C(O)C1=C(C(=O)Nc2ccc(Oc3ccccc3)cc2)COC1 [Compound 51]
IC50 (recombinant human DHODH; [1]): > 1500 nM

COc1ccccc1-c1ccc(NC(=O)C2=C(C(=O)O)CCC2)c(Cl)c1 [Compound 53]
IC50 (recombinant human DHODH; [1]): < 800 nM
IC50 (DHODH; [2]): 800 to 1500 nM

COc1ccccc1-c1ccc(NC(=O)C2=C(C(=O)O)CCC2)cc1Cl [Compound 54]
IC50 (recombinant human DHODH; [1]): < 800 nM
IC50 (DHODH; [2]): < 800 nM

COc1ccccc1-c1ccc(NC(=O)C2=C(C(=O)O)CCC2)c(C(F)(F)F)c1 [Compound 55]
IC50 (recombinant human DHODH; [1]): > 1500 nM

COc1ccccc1-c1c(F)c(F)c(NC(=O)C2=C(C(=O)O)CCC2)c(F)c1F [Compound 56]
IC50 (recombinant human DHODH): < 800 nM
IC50 (DHODH): < 800 nM

COc1ccccc1-c1ccc(NC(=O)C2=C(C(=O)O)CCC2)c(C)c1 [Compound 57]
IC50 (recombinant human DHODH; [1]): < 800 nM
IC50 (DHODH; [2]): 800 to 1500 nM

COc1ccccc1-c1cc(Cl)c(NC(=O)C2=C(C(=O)O)CCC2)c(Cl)c1 [Compound 58]
IC50 (recombinant human DHODH; [1]): < 800 nM
IC50 (DHODH; [2]): 800 to 1500 nM

COc1ccc(Oc2ccc(C(F)(F)F)cc2NC(=O)C2=C(C(=O)O)CCC2)cc1 [Compound 59]
IC50 (recombinant human DHODH; [1]): > 1500 nM

O=C(O)C1=C(C(=O)Nc2ccc(Oc3ccc(F)cc3F)cc2)CCC1 [Compound 60]
IC50 (recombinant human DHODH; [1]): 800 to 1500 nM

O=C(O)C1=C(C(=O)Nc2ccc(Oc3ccc(Cl)cc3)cc2)CCC1 [Compound 61]
IC50 (recombinant human DHODH; [1]): > 1500 nM

CCOc1ccccc1-c1cc(F)c(NC(=O)C2=C(C(=O)O)CCC2)c(F)c1 [Compound 62]
IC50 (recombinant human DHODH; [1]): < 800 nM
IC50 (DHODH; [2]): < 800 nM

CCOc1cccc(-c2cc(F)c(NC(=O)C3=C(C(=O)O)CCC3)c(F)c2)c1 [Compound 63]
IC50 (recombinant human DHODH; [1]): < 800 nM
IC50 (DHODH; [2]): < 800 nM

O=C(O)C1=C(C(=O)Nc2c(F)cc(-c3cccc(OC(F)(F)F)c3)cc2F)CCC1 [Compound 64]
IC50 (recombinant human DHODH; [1]): < 800 nM

O=C(O)C1=C(C(=O)Nc2c(F)cc(-c3ccccc3Cl)cc2F)CCC1 [Compound 65]
IC50 (recombinant human DHODH; [1]): < 800 nM

O=C(O)C1=C(C(=O)Nc2c(F)cc(-c3ccccc3F)cc2F)CCC1 [Compound 66]
IC50 (recombinant human DHODH; [1]): < 800 nM

COc1ccc(-c2cc(F)c(NC(=O)C3=C(C(=O)O)CCC3)c(F)c2)c(OC)c1 [Compound 67]
IC50 (recombinant human DHODH; [1]): < 800 nM

O=C(O)C1=C(C(=O)Nc2ccc(OCc3ccccc3C(F)(F)F)c(Cl)c2)CCC1 [Compound 68]
IC50 (recombinant human DHODH; [1]): < 800 nM
IC50 (DHODH; [2]): > 1500 nM

O=C(O)C1=C(C(=O)NCCCCc2ccccc2)CCC1 [Compound 70]
IC50 (recombinant human DHODH; [1]): > 1500 nM

O=C(O)C1=C(C(=O)NC2CC2c2ccccc2)CCC1 (stereo not drawn) [Compound 71]
IC50 (recombinant human DHODH; [1]): > 1500 nM

O=C(O)C1=C(C(=O)Nc2ccc(OCc3ccccc3)c(Cl)c2)CCC1 [Compound 72]
IC50 (recombinant human DHODH; [1]): < 800 nM

CN(C(=O)C1=C(C(=O)O)CCC1)c1ccc(-c2ccccc2)cc1 [Compound 73]
IC50 (recombinant human DHODH; [1]): > 1500 nM

O=C(O)C1=C(C(=O)Nc2ccc(OCc3ccccc3F)c(Cl)c2)CCC1 [Compound 74]
IC50 (recombinant human DHODH; [1]): < 800 nM

O=C(O)C1=C(C(=O)Oc2ccc(-c3ccccc3)cc2)CCC1 [Compound 75]
IC50 (recombinant human DHODH; [1]): > 1500 nM

COc1ccccc1-c1ccc(OC(=O)C2=C(C(=O)O)CCC2)c(F)c1 [Compound 76]
IC50 (recombinant human DHODH; [1]): < 800 nM
IC50 (DHODH; [2]): < 800 nM
IC50 (recombinant murine DHODH): 800 to 1500 nM
